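Method: 48-hour compound exposure of cells in 96-well plates, five concentrations, linear interpolation of endpoints. The concentration for 50% growth inhibition is given as GI50. TGI: concentration producing complete growth inhibition.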
How the values were obtained:
Assay in all cases: NCI-60 cell line screen, 48 h
K-562 leukemia = tested on: K-562 leukemia
NCI-H226 lung = tested on: NCI-H226 lung
SK-MEL-2 melanoma = tested on: SK-MEL-2 melanoma
IGROV1 ovarian = tested on: IGROV1 ovarian
M14 melanoma = tested on: M14 melanoma
MALME-3M melanoma = tested on: MALME-3M melanoma
OVCAR-8 ovarian = tested on: OVCAR-8 ovarian
COLO 205 colon = tested on: COLO 205 colon
HCT-15 colon = tested on: HCT-15 colon
SF-295 CNS = tested on: SF-295 CNS
NCI-H23 lung = tested on: NCI-H23 lung
A498 renal = tested on: A498 renal
NCI-H460 lung = tested on: NCI-H460 lung
SNB-75 CNS = tested on: SNB-75 CNS
NCI/ADR-RES ovarian = tested on: NCI/ADR-RES ovarian
SK-MEL-28 melanoma = tested on: SK-MEL-28 melanoma
OVCAR-3 ovarian = tested on: OVCAR-3 ovarian
DU-145 prostate = tested on: DU-145 prostate
HT29 colon = tested on: HT29 colon
BT-549 breast = tested on: BT-549 breast
PC-3 prostate = tested on: PC-3 prostate
SK-OV-3 ovarian = tested on: SK-OV-3 ovarian
KM12 colon = tested on: KM12 colon
MOLT-4 leukemia = tested on: MOLT-4 leukemia
MDA-MB-231 breast = tested on: MDA-MB-231 breast
U251 CNS = tested on: U251 CNS
OVCAR-4 ovarian = tested on: OVCAR-4 ovarian
LOX IMVI melanoma = tested on: LOX IMVI melanoma
TK-10 renal = tested on: TK-10 renal
CCRF-CEM leukemia = tested on: CCRF-CEM leukemia
HS 578T breast = tested on: HS 578T breast
CAKI-1 renal = tested on: CAKI-1 renal
MDA-MB-435 = tested on: MDA-MB-435
OVCAR-5 ovarian = tested on: OVCAR-5 ovarian
A549 NSCLC = tested on: A549 NSCLC
SN12C renal = tested on: SN12C renal
HOP-62 NSCLC = tested on: HOP-62 NSCLC
NCI-H522 lung = tested on: NCI-H522 lung
786-0 renal = tested on: 786-0 renal
HCT-116 colon = tested on: HCT-116 colon
SF-268 CNS = tested on: SF-268 CNS
RXF 393 renal = tested on: RXF 393 renal
HCC-2998 colon = tested on: HCC-2998 colon
SK-MEL-5 melanoma = tested on: SK-MEL-5 melanoma
EKVX NSCLC = tested on: EKVX NSCLC
RPMI-8226 leukemia = tested on: RPMI-8226 leukemia
SW-620 colon = tested on: SW-620 colon
T-47D breast = tested on: T-47D breast
UACC-257 melanoma = tested on: UACC-257 melanoma
HOP-92 NSCLC = tested on: HOP-92 NSCLC
SNB-19 CNS = tested on: SNB-19 CNS
UO-31 renal = tested on: UO-31 renal
MCF7 breast = tested on: MCF7 breast
ACHN renal = tested on: ACHN renal
SF-539 CNS = tested on: SF-539 CNS
UACC-62 melanoma = tested on: UACC-62 melanoma
SR leukemia = tested on: SR leukemia
HL-60(TB) leukemia = tested on: HL-60(TB) leukemia

## C=C1C(=O)O[C@H]2[C@H]1CC/C(CNC(=O)C(C)c1ccc(CC(C)C)cc1)=C\CC[C@@]1(C)O[C@@H]21 (stereo partly specified)
K-562 leukemia
  GI50: 2.29 µM
  TGI: 10.4 µM
NCI-H226 lung
  GI50: 1.66 µM
  TGI: 3.27 µM
SK-MEL-2 melanoma
  GI50: 1.6 µM
  TGI: 3.18 µM
IGROV1 ovarian
  GI50: 1.59 µM
  TGI: 3.43 µM
M14 melanoma
  GI50: 1.85 µM
  TGI: 3.98 µM
MALME-3M melanoma
  GI50: 1.71 µM
  TGI: 3.36 µM
OVCAR-8 ovarian
  GI50: 1.88 µM
  TGI: 5.96 µM
COLO 205 colon
  GI50: 1.93 µM
  TGI: 3.83 µM
HCT-15 colon
  GI50: 1.47 µM
  TGI: 3.25 µM
SF-295 CNS
  GI50: 3.45 µM
  TGI: 14.7 µM
NCI-H23 lung
  GI50: 1.67 µM
  TGI: 3.32 µM
A498 renal
  GI50: 2.22 µM
  TGI: 8.38 µM
NCI-H460 lung
  GI50: 1.94 µM
  TGI: 3.97 µM
SNB-75 CNS
  GI50: 1.34 µM
  TGI: 2.63 µM
NCI/ADR-RES ovarian
  GI50: 2.07 µM
  TGI: 5.47 µM
SK-MEL-28 melanoma
  GI50: 1.67 µM
  TGI: 3.32 µM
OVCAR-3 ovarian
  GI50: 1.54 µM
  TGI: 2.95 µM
DU-145 prostate
  GI50: 1.49 µM
  TGI: 2.85 µM
HT29 colon
  GI50: 1.79 µM
  TGI: 3.66 µM
BT-549 breast
  GI50: 1.8 µM
  TGI: 4.45 µM
PC-3 prostate
  GI50: 1.77 µM
  TGI: 3.82 µM
SK-OV-3 ovarian
  GI50: 12.3 µM
  TGI: 24.8 µM
KM12 colon
  GI50: 2.38 µM
  TGI: 5.65 µM
MOLT-4 leukemia
  GI50: 2.39 µM
  TGI: 9.66 µM
MDA-MB-231 breast
  GI50: 1.96 µM
  TGI: 4 µM
U251 CNS
  GI50: 1.67 µM
  TGI: 3.1 µM
OVCAR-4 ovarian
  GI50: 1.66 µM
  TGI: 3.13 µM
LOX IMVI melanoma
  GI50: 1.45 µM
  TGI: 2.81 µM
TK-10 renal
  GI50: 1.66 µM
  TGI: 3.02 µM
CCRF-CEM leukemia
  GI50: 0.551 µM
  TGI: 7.49 µM
HS 578T breast
  GI50: 2.24 µM
  TGI: 7.46 µM
CAKI-1 renal
  GI50: 1.69 µM
  TGI: 3.06 µM
MDA-MB-435
  GI50: 1.72 µM
  TGI: 3.76 µM
OVCAR-5 ovarian
  GI50: 1.92 µM
  TGI: 4.04 µM
A549 NSCLC
  GI50: 2.37 µM
  TGI: 6.72 µM
SN12C renal
  GI50: 1.63 µM
  TGI: 3.26 µM
HOP-62 NSCLC
  GI50: 3.07 µM
  TGI: 12.2 µM
NCI-H522 lung
  GI50: 1.63 µM
  TGI: 3.5 µM
786-0 renal
  GI50: 1.76 µM
  TGI: 3.36 µM
HCT-116 colon
  GI50: 1.32 µM
  TGI: 2.92 µM
SF-268 CNS
  GI50: 1.74 µM
  TGI: 3.58 µM
RXF 393 renal
  GI50: 1.31 µM
  TGI: 2.61 µM
HCC-2998 colon
  GI50: 1.83 µM
  TGI: 3.38 µM
SK-MEL-5 melanoma
  GI50: 1.71 µM
  TGI: 3.08 µM
EKVX NSCLC
  GI50: 1.67 µM
  TGI: 3.22 µM
RPMI-8226 leukemia
  GI50: 2.29 µM
  TGI: 6.92 µM
SW-620 colon
  GI50: 1.69 µM
  TGI: 3.55 µM
T-47D breast
  GI50: 1.78 µM
  TGI: 4.79 µM
UACC-257 melanoma
  GI50: 1.56 µM
  TGI: 3.12 µM
HOP-92 NSCLC
  GI50: 1.5 µM
  TGI: 2.92 µM
SNB-19 CNS
  GI50: 2.15 µM
  TGI: 5.67 µM
UO-31 renal
  GI50: 1.33 µM
  TGI: 2.6 µM
MCF7 breast
  GI50: 1.62 µM
  TGI: 3.68 µM
ACHN renal
  GI50: 1.45 µM
  TGI: 2.76 µM
SF-539 CNS
  GI50: 1.58 µM
  TGI: 3.07 µM
UACC-62 melanoma
  GI50: 1.67 µM
  TGI: 3.38 µM

## Cc1ccc2c(c1)C(=O)/C(=C/c1cccc(OCC(=O)c3ccc(Cl)cc3)c1)CS2
K-562 leukemia
  GI50: 2.45 µM
  TGI: 8.2 µM
NCI-H226 lung
  GI50: 14.9 µM
  TGI: 31.4 µM
SK-MEL-2 melanoma
  GI50: 8.03 µM
  TGI: 22.3 µM
IGROV1 ovarian
  GI50: 5.65 µM
  TGI: 20.4 µM
M14 melanoma
  GI50: 4.07 µM
  TGI: 27.4 µM
MALME-3M melanoma
  GI50: 15.5 µM
  TGI: 46.1 µM
OVCAR-8 ovarian
  GI50: 4.53 µM
  TGI: 24.1 µM
COLO 205 colon
  GI50: 9.31 µM
  TGI: 35.8 µM
HCT-15 colon
  GI50: 2.74 µM
  TGI: 15.3 µM
SR leukemia
  GI50: 1.8 µM
  TGI: 4.28 µM
SF-295 CNS
  GI50: 3.17 µM
  TGI: 12.1 µM
NCI-H23 lung
  GI50: 3.03 µM
  TGI: 23.4 µM
NCI-H460 lung
  GI50: 18.8 µM
  TGI: > 100 µM
SNB-75 CNS
  GI50: 6.39 µM
  TGI: 44.9 µM
NCI/ADR-RES ovarian
  GI50: 2.68 µM
  TGI: 9.02 µM
SK-MEL-28 melanoma
  GI50: 2.27 µM
  TGI: 4.93 µM
OVCAR-3 ovarian
  GI50: 5.58 µM
  TGI: 18 µM
DU-145 prostate
  GI50: 21.9 µM
  TGI: > 100 µM
HT29 colon
  GI50: 2.81 µM
  TGI: 7.25 µM
BT-549 breast
  GI50: 12.8 µM
  TGI: 33.8 µM
PC-3 prostate
  GI50: 2.99 µM
SK-OV-3 ovarian
  GI50: 25.1 µM
  TGI: 90.9 µM
KM12 colon
  GI50: 2.64 µM
  TGI: 8.02 µM
MOLT-4 leukemia
  GI50: 2.69 µM
  TGI: 8.32 µM
MDA-MB-231 breast
  GI50: 8.21 µM
  TGI: 76.1 µM
U251 CNS
  GI50: 3.14 µM
  TGI: 13.6 µM
OVCAR-4 ovarian
  GI50: 4.07 µM
  TGI: 18.5 µM
LOX IMVI melanoma
  GI50: 1.84 µM
  TGI: 3.87 µM
TK-10 renal
  GI50: 14.1 µM
  TGI: 39.5 µM
CCRF-CEM leukemia
  GI50: 2.38 µM
  TGI: 6.83 µM
HS 578T breast
  GI50: 1.54 µM
  TGI: 4.42 µM
CAKI-1 renal
  GI50: 12.4 µM
  TGI: 37 µM
MDA-MB-435
  GI50: 2.4 µM
  TGI: 6.26 µM
OVCAR-5 ovarian
  GI50: 15.7 µM
  TGI: 30 µM
A549 NSCLC
  GI50: 33.4 µM
  TGI: > 100 µM
SN12C renal
  GI50: 14.6 µM
  TGI: 62.7 µM
HOP-62 NSCLC
  GI50: 13 µM
  TGI: 30.6 µM
NCI-H522 lung
  GI50: 3.94 µM
  TGI: 18.2 µM
786-0 renal
  GI50: 11.3 µM
  TGI: 24.6 µM
HCT-116 colon
  GI50: 1.89 µM
  TGI: 3.85 µM
SF-268 CNS
  GI50: 10.4 µM
  TGI: 33.3 µM
RXF 393 renal
  GI50: 16.8 µM
  TGI: 34.8 µM
SK-MEL-5 melanoma
  GI50: 6.95 µM
  TGI: 19.6 µM
EKVX NSCLC
  GI50: 8.65 µM
  TGI: 40.8 µM
RPMI-8226 leukemia
  GI50: 1.85 µM
  TGI: 4.47 µM
SW-620 colon
  GI50: 1.95 µM
  TGI: 4.19 µM
T-47D breast
  GI50: 5.67 µM
  TGI: 26.5 µM
UACC-257 melanoma
  GI50: 13.9 µM
  TGI: 33.3 µM
SNB-19 CNS
  GI50: 19.5 µM
  TGI: 77.1 µM
UO-31 renal
  GI50: 2.93 µM
  TGI: 18.3 µM
MCF7 breast
  GI50: 3 µM
  TGI: 11.3 µM
HL-60(TB) leukemia
  GI50: 2.95 µM
  TGI: 13.4 µM
ACHN renal
  GI50: 8.72 µM
  TGI: 21.2 µM
SF-539 CNS
  GI50: 17.8 µM
  TGI: 36.6 µM
UACC-62 melanoma
  GI50: 9.14 µM
  TGI: 25.8 µM

Source: PubChem BioAssay (NCI)
